# Reference: article PMC8507260, “A2E-induced inflammation and angiogenesis in RPE cells in vitro are modulated by PPAR-α, -β/δ, -γ, and RXR antagonists and by norbixin” (Aging (Albany NY), 2021)
# “Also recorded” adds a separate entry of the source. Where two headings read alike, the source gives them in different places.
# Experiments:
# RPE cells = assay: Cell viability of RPE cells in culture without blue light; format: cell-based, porcine; settings: cell culture conditions for cytokine dosage, absence of blue light exposure
# PPAR-γ = biological target: T1, PPAR-γ (Homo sapiens, UniProt P37231); set-up: Eurofins Cerep (contract laboratory that ran the assay); method as in PMID 19891958; settings: cited from earlier work
# T1 sequence (P37231 1-505): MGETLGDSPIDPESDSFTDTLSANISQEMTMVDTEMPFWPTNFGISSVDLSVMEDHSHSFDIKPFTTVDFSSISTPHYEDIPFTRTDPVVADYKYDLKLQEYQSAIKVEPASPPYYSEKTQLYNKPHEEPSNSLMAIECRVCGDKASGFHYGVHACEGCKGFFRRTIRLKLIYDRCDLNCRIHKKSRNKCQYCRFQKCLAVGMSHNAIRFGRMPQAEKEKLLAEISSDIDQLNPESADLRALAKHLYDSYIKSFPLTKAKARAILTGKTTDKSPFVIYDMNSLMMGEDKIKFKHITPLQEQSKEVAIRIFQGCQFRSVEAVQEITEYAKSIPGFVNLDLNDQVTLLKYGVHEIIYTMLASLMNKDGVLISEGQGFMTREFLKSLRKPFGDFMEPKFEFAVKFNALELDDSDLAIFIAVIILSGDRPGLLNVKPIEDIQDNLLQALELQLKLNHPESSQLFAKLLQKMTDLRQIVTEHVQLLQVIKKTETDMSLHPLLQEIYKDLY
# PPAR-β/δ = biological target: T2, PPAR-β/δ (Homo sapiens, UniProt Q03181); assay: In vitro antagonist assay on PPAR-β/δ; format: biochemical
# T2 sequence (Q03181 1-441): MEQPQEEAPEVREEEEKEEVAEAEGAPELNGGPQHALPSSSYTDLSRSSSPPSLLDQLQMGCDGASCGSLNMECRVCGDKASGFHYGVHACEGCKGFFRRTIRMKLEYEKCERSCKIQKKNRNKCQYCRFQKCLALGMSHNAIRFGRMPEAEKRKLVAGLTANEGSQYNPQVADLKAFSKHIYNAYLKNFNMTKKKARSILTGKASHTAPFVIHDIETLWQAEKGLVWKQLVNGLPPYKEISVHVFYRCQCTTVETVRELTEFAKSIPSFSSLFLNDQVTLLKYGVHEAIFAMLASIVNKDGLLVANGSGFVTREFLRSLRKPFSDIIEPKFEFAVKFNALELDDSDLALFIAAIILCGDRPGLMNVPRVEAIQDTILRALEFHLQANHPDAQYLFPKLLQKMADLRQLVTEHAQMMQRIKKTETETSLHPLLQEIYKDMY
# Text: The binding and activity of norbixin on PPARs remains controversial, thus, firstly, we performed competition experiments in vitro between norbixin and [^3H] GW7647, an agonist of PPAR-α, and [^3H] rosiglitazone, an agonist of PPAR-γ. […] Secondly, we tested whether norbixin could induce the transactivation of PPAR-α, -β/δ or -γ in the context of RPE cells in vitro by co-transfecting porcine RPE cells with a plasmid expressing each of the full-length PPAR isoforms and a plasmid expressing luciferase under the control of the PPAR response element. […] Then, we wanted to determine if norbixin could modulate the transactivation of PPAR isoforms induced by specific agonists.
Compound,cell viability (RPE cells),PPAR-γ transactivation in 3T3-L1 adipocytes (PPAR-γ; norbixin at 20 μM),PPAR-γ transactivation in 3T3-L1 adipocytes (PPAR-γ; norbixin at 70 μM),IC50 (PPAR-β/δ) [µM]
"CC(C=CC1=C(C)CCCC1(C)C)=CC=CC(C)=Cc1cc(C=CC=C(C)C=CC2=C(C)CCCC2(C)C)cc[n+]1CCO [A2E, N-retinylidene-N-retinylethanolamine]",not diminished,,,
"CC(/C=C/C=C(C)/C=C/C(=O)O)=C\C=C\C=C(C)\C=C\C=C(C)\C=C\C(=O)O (stereo in doubt) [norbixin, 9’-cis-norbixin]",,does not induce; also recorded: did not induce,induces a limited transactivation,9.9
